# Legend:
# murine H22 cells = experiment: In vivo anti-tumor activity, H22 tumor in ICR mice, oral administration; conditions: for Animal numbers Start/End / Body weight (g) (X ± SD): ICR mice with H22; for Inhibition rate (%) / Tumor weight (g) (X ± SD): tumors weighed at 12th day
# Description: Animal: ICR mice, half male and half female (18-22 g), provided by Laboratory Animal Science Department of Peking Medical University.
# Tumor cell strain: murine H22 cells were provided by cell bank of pharmacological group of the State Key Laboratory of Natural and Biomimetic Drugs.
# Method: Murine tumor cells were taken to be treated, and diluted to 5×10^6 cells/ml after treatment. The diluted tumor cells solution was inoculated to the left forelimb oxter of the mice with 0.2 ml/mouse under aseptic condition. 24 h after inoculation, the mice were divided into groups and orally administered once per day to the mice in each group for 10 days. At the 12th day, the tumors were peeled off and weighed, and the average weight of the tumor, standard deviation (SD) and p-value of each group were calculated.
# [1] = biological target: T1, 20S proteasome extracted from rat liver, chymotryptic-like (CT-L) activity (Rattus norvegicus, UniProt P18421+P28075); experiment: Proteasome inhibition, chymotryptic-like (CT-L) activity, fluorescent peptide Suc-leu-leu-Val-Tyr-AMC; assay type: biochemical; conditions: rat liver 20S proteasome, 37° C., 1 h
# T1 construct: 20S proteasome extracted from rat liver; from tissue; host or cells: rat liver
# In short: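 Rat liver 20S proteasome (1 μg) incubated 1 h at 37° C with compounds and 50 μM Suc-Leu-Leu-Val-Tyr-AMC in 20 mM Tris-HCl.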
# [2] = biological target: T2, 20S proteasome extracted from rat liver, peptidyl-glutamyl-peptide-hydrolyzing (PGPH) enzyme activity (Rattus norvegicus, UniProt P28073+Q9JHW0); experiment: Proteasome inhibition, PGPH activity, fluorescent peptide Z-leu-leu-Glu-βNA; assay type: biochemical; conditions: rat liver 20S proteasome, 37° C., 1 h
# T2 construct: 20S proteasome extracted from rat liver; from tissue; host or cells: rat liver
# In short: (§1)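 Rat liver 20S proteasome (1 μg) incubated 1 h at 37 °C with compounds, 50 μM fluorogenic peptide and 20 mM Tris-HCl. AMC release read at 380/440 nm and βNA release at 335/410 nm. Inhibition rate calculated against a 0.1% DMSO solvent control.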
# [3] = tested on: HL-60 human leukemia cell; experiment: Preliminary anti-tumor screening in vitro, MTT method; assay type: cell-based; set-up: key to Test results: +++: inhibition rates at three doses are greater than 50%; ++: inhibition rates at two doses are greater than 50%; +: inhibition rate at one dose is greater than 50%; conditions: HL-60, MTT; for Test results: number of doses with inhibition > 50%; for inhibition at 0.05 µM / inhibition at 0.5 µM / inhibition at 5 µM: Homo sapiens, read-out: Inhibition rate %
# In short: (§2)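 In vitro cytotoxicity by routine methods: MTT read-out for HL-60 cells, SRB read-out for BGC-823, Bel-7402 and KB cells.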
# [4] = biological target: T3, 20S proteasome extracted from rat liver, trypsin-like (TL) activity (Rattus norvegicus, UniProt P40112+Q9JHW0); experiment: Proteasome inhibition, trypsin-like (TL) activity, fluorescent peptide Z-Ala-Arg-Arg-AMC; assay type: biochemical; conditions: rat liver 20S proteasome, 37° C., 1 h; read-out: T-L (IC50)
# T3 construct: 20S proteasome extracted from rat liver; from tissue; host or cells: rat liver
# In short: as §1
# [5] = tested on: KB human nasopharyngeal carcinoma cell; experiment: Preliminary anti-tumor screening in vitro, SRB method; assay type: cell-based; set-up: key to Test results: +++: inhibition rates at three doses are greater than 50%; ++: inhibition rates at two doses are greater than 50%; +: inhibition rate at one dose is greater than 50%; conditions: for inhibition at 0.05 µM / inhibition at 0.5 µM / inhibition at 5 µM: Homo sapiens, read-out: Inhibition rate %; for Test results: number of doses with inhibition > 50%
# In short: as §2
# [6] = tested on: BGC-823 human gastric cancer cell; experiment: as above; assay type: cell-based; set-up: key to Test results: +++: inhibition rates at three doses are greater than 50%; ++: inhibition rates at two doses are greater than 50%; +: inhibition rate at one dose is greater than 50%; conditions: BGC-823, SRB; for Test results: number of doses with inhibition > 50%; for inhibition at 0.05 µM / inhibition at 0.5 µM / inhibition at 5 µM: Homo sapiens, read-out: Inhibition rate %
# In short: as §2
# [7] = tested on: Bel-7402 human hepatocarcinoma cell; experiment: as above; assay type: cell-based; set-up: key to Test results: +++: inhibition rates at three doses are greater than 50%; ++: inhibition rates at two doses are greater than 50%; +: inhibition rate at one dose is greater than 50%; conditions: Bel-7402, SRB; for Test results: number of doses with inhibition > 50%; for inhibition at 0.05 µM / inhibition at 0.5 µM / inhibition at 5 µM: Homo sapiens, read-out: Inhibition rate %
# In short: as §2
# [8] = 1 mg/kg orally once per day for 10 days
# [9] = 2 mg/kg orally once per day for 10 days
Structure (SMILES),Animal numbers Start/End (murine H22 cells; [8]),Body weight (g) (X ± SD) (murine H22 cells; [8]),Inhibition rate (%) (murine H22 cells; [8]),Tumor weight (g) (X ± SD) (murine H22 cells; [8]),Animal numbers Start/End (murine H22 cells; [9]),Body weight (g) (X ± SD) (murine H22 cells; [9]),Inhibition rate (%) (murine H22 cells; [9]),Tumor weight (g) (X ± SD) (murine H22 cells; [9]),IC50 [1] [nM],IC50 [2] [nM],Test results [3],inhibition at 0.05 µM [3] [%],inhibition at 0.5 µM [3] [%],inhibition at 5 µM [3] [%],IC50 [4] [nM],inhibition at 0.05 µM [5] [%],inhibition at 0.5 µM [5] [%],inhibition at 5 µM [5] [%],Test results [5],Test results [6],further results
"CC(C)C[C@H](NC(=O)[C@H](Cc1ccc2ccccc2c1)NC(=O)[C@H](CC(C)C)NC(=O)c1cnccn1)B(O)O [Compound 6f, N-pyrazineformyl-L-leucyl-L-naphthylalanyl-L-leucine Boronic Acid]",8/6,1.49 ± 1.07,51.67,0.60 ± 0.16,8/5,0.04 ± 4.29,55.34,0.56 ± 0.17,0.079 ± 0.011,3.63 ± 1.67,++,1.26,87.4,88.6,> 20,32.1,95.7,97.8,++,+++,inhibition at 0.05 µM [6]: 80.3%; inhibition at 0.5 µM [6]: 95.5%; inhibition at 5 µM [6]: 96.8%; Test results [7]: ++; inhibition at 0.05 µM [7]: 39.4%; inhibition at 0.5 µM [7]: 90.6%; inhibition at 5 µM [7]: 93.7%
"CC(C)C[C@H](NC(=O)[C@H](Cc1ccc2ccccc2c1)NC(=O)[C@H](Cc1ccccc1)NC(=O)c1cnccn1)B(O)O [Compound 6g, N-pyrazineformyl-L-phenylalanyl-L-naphthylalanyl-L-leucine Boronic Acid]",8/8,-1.28 ± 2.83,34.24,0.82 ± 0.36,8/8,-0.53 ± 2.58,56.33,0.54 ± 0.28,0.111 ± 0.05,3.8 ± 0.983,++,5.68,87.8,88.6,> 20,59.4,96,96.7,+++,+++,"Toxicity in the in vivo anti-tumor test, compared with bortezomib (PS341) (murine H22 cells; ICR mice with H22, oral): even lower; inhibition at 0.05 µM [6]: 76.9%; inhibition at 0.5 µM [6]: 95.5%; inhibition at 5 µM [6]: 97.1%; Test results [7]: ++; inhibition at 0.05 µM [7]: 37.9%; inhibition at 0.5 µM [7]: 72.2%; inhibition at 5 µM [7]: 93.4%"
